Laboratory results taken from patent publication US3956510A, “Certain mixed antibacterials” (priority 1974, dated 1976).

Key:
Pseudomonas aeruginosa [1] = assay: bacteriostatic activity / minimum inhibitory concentration against Pseudomonas aeruginosa; type: cell-based
Pseudomonas aeruginosa [2] = details: alone; is reported; cited from earlier work
bacteria = details: cited from earlier work

O=C(Nc1ccc(Br)cc1)c1cc(Br)cc(Br)c1O [3,4',5-tribromo salicylanilide]
bacteriostatic activity (Pseudomonas aeruginosa [1]; alone, under the most ideal conditions): 75 ppm
bacteriostatic activity (Pseudomonas aeruginosa [1]; with 2% soap, based on active ingredient): 160 ppm

Oc1cc(Cl)ccc1Oc1ccc(Cl)cc1Cl [2,4,4'-trichloro-2'-hydroxydiphenyl ether]
activity in the presence of a surfactant (Pseudomonas aeruginosa [1]; in the presence of a surfactant such as soap): no practical activity is demonstrable
minimum inhibitory concentration (Pseudomonas aeruginosa [2]): greater than 300 ppm

benzalkonium chloride
bactericidal effect on dried bacteria coated with a greasy film (bacteria; dried bacteria coated with a greasy film, Rahm 1946): can survive many hours of contact
bactericidal effect (bacteria; ordinarily): ordinarily kills bacteria
